“And” between values parts separate entries of the source, which are not always exact repeats. Identical values can stand only once.
Experiments:
[1] = target: T1, Human P2Y1-R (Homo sapiens, UniProt P47900); assay: Gαq protein activation BRET2 assay (Gαq-RLuc8/GFP2-Gγ2/Gβ1) in HEK293T cells expressing P2Y1-R; assay type: cell-based; conditions: Fig. S2a, P2Y1-R, individual replicates
T1 construct: expressed in transfected cells; host or cells: HEK293T/17
From the text: (§1) As previously described, using a BRET^2 (bioluminescence resonance energy transfer)-based assay, we directly monitored the basal Gαq protein activation by measuring the interaction between Gαq and Gγ2 subunits of the Gαqβ1γ2 heterotrimer complex. Indeed, this assay is based on the non-radiative transfer between the Renilla reniformis luciferase (RLuc8) energy donor fused to the Gαq protein subunit and the fluorescent GFP2 energy acceptor fused to Gγ2 protein subunit (Fig. 1a). […] By contrast, ligand-independent constitutive receptor activation or agonist-induced receptor activation will promote Gαq/Gγ2 subunit dissociation, thereby leading to a decrease of the basal BRET signal (Fig. 1a). […] To preclude any P2Y1-R activation by a passive release of ADP by HEK293T cells, we performed similar experiments in the presence of high concentration of apyrase (0.2U/mL) to degrade any trace of ADP in the medium (Additional File 2: Fig. S2a). Under these conditions, P2Y1-R expression still induces a marked and significant decrease of the basal BRET signal compared to control cells (pcDNA3.1), thereby supporting a P2Y1-R-dependent constitutive activation of Gαq protein. […] Of note, because P2Y1-R and AT1-R were respectively Myc- and HA-tagged and were thus detected using different primary antibodies, their expression at the cell surface cannot be compared between each other’s.
(§2) Human P2Y1-R (NCBI Reference Sequence: NM_002563.2) and P2Y12-R (NCBI Reference Sequence: NM_022788.3) were fused to double Myc epitope and rat AT1-R (NCBI Reference Sequence: NM_030985.4) to HA tag in N-terminus extracellular region. Alternatively, receptors were also fused to Venus tag in C-terminus intracellular region. Plasmids encoding Gαq-RLuc8, GFP2-Gγ2 and untagged Gβ1 were previously described. ADP was purchased from Sigma-Aldrich/Merck (Darmstadt, Germany). […] The Gq inhibitor (FR900359) was kindly supplied by Evi Kostenis (University of Bonn. Germany).
G protein activation and β-arrestin 2 recruitment were performed as previously described. Briefly, vectors encoding receptors, Gαq-RLuc8, GFP2-Gγ2, Gβ1, or β-arrestin 2 were transiently cotransfected into HEK293T/17 cells as indicated in the figure legends. Forty-eight hours after transfection, cells were washed and resuspended in PBS containing 0.1% (w/v) glucose at room temperature and then distributed (80 μg proteins/well) in a 96-well microplate (PerkinElmer). For G protein activation experiments (BRET^2), cells were incubated in the absence (basal BRET signal) or in the presence of ligand for 1 minute. BRET signal between RLuc8 and GFP2 was measured after addition of the luciferase substrate coelenterazine 400a (5 μM). For β-arrestin 2 recruitment (BRET^1), cells were stimulated with ligands for 5 or 15 min. BRET signal was recorded after incubation with coelenterazine h (5 μM) for 8 min. For kinetics studies, BRET signal between RLuc and Venus was recorded at 20-s intervals at basal state for the 2 first minutes and then for 5 min after ligand injection. For saturation curves (BRET^1), the expression level of Venus- or RLuc-tagged protein was determined by direct measurement of total fluorescence and luminescence respectively. Total fluorescence was first measured with an excitation filter at 485 nm and an emission filter at 520 nm. Then, the same sample was incubated for 8 minutes with 5 μM coelenterazine h and the total luminescence was measured. BRET^2 and BRET^1 readings were collected using a modified Infinite F500 (Tecan Group Ltd). The BRET^2 signal was calculated by the ratio of emission of GFP2 (510–540 nm) to RLuc8 (370–450 nm) and the BRET^1 signal by the ratio of emission of Venus (520–570 nm) to RLuc (370–480 nm). […]

[2] = system: Gαq protein in HEK293T cells (pcDNA3.1); assay: Gαq protein activation BRET2 assay in control HEK293T cells without receptor (pcDNA3.1 / 0 μg); assay type: cell-based, Human; conditions: Fig. S2a, pcDNA3.1, individual replicates
From the text: as §1
G protein activation and β-arrestin 2 recruitment were performed as previously described. […] BRET signal between RLuc8 and GFP2 was measured after addition of the luciferase substrate coelenterazine 400a (5 μM). […] BRET signal was recorded after incubation with coelenterazine h (5 μM) for 8 min. For kinetics studies, BRET signal between RLuc and Venus was recorded at 20-s intervals at basal state for the 2 first minutes and then for 5 min after ligand injection. For saturation curves (BRET^1), the expression level of Venus- or RLuc-tagged protein was determined by direct measurement of total fluorescence and luminescence respectively. Total fluorescence was first measured with an excitation filter at 485 nm and an emission filter at 520 nm. Then, the same sample was incubated for 8 minutes with 5 μM coelenterazine h and the total luminescence was measured. BRET^2 and BRET^1 readings were collected using a modified Infinite F500 (Tecan Group Ltd). The BRET^2 signal was calculated by the ratio of emission of GFP2 (510–540 nm) to RLuc8 (370–450 nm) and the BRET^1 signal by the ratio of emission of Venus (520–570 nm) to RLuc (370–480 nm). Sometimes, results are expressed as the Net BRET computed by deducting the BRET background signal (obtained in the presence of the energy donor alone) from the BRET signal (acquired from cells expressing both the energy donor and acceptor).

[3] = target: T1, Human P2Y1-R; assay: β-arrestin 2 recruitment BRET1 assay (β-arrestin 2-RLuc / P2Y1-R-Venus) in HEK293T cells; assay type: cell-based; conditions: Fig. S5; P2Y1-R; (+) apyrase; individual replicates
From the text: (§3) We assessed β-arrestin 2 recruitment to the receptor using BRET^1 assay. The assay measures the interaction between β-arrestin 2 fused to the Renilla reniformis luciferase (RLuc) energy donor and the receptor fused to fluorescent Venus energy acceptor (Fig. 3a). The recruitment of cytosolic β-arrestin 2 to the receptor at the plasma membrane in the presence of an agonist will promote a significant increase of the BRET signal compared to the basal state, reflecting the close proximity between the β-arrestin 2 energy donor and the receptor energy acceptor [22].
as §2
G protein activation and β-arrestin 2 recruitment were performed as previously described. Briefly, vectors encoding receptors, Gαq-RLuc8, GFP2-Gγ2, Gβ1, or β-arrestin 2 were transiently cotransfected into HEK293T/17 cells as indicated in the figure legends. Forty-eight hours after transfection, cells were washed and resuspended in PBS containing 0.1% (w/v) glucose at room temperature and then distributed (80 μg proteins/well) in a 96-well microplate (PerkinElmer). For G protein activation experiments (BRET^2), cells were incubated in the absence (basal BRET signal) or in the presence of ligand for 1 minute. BRET signal between RLuc8 and GFP2 was measured after addition of the luciferase substrate coelenterazine 400a (5 μM). For β-arrestin 2 recruitment (BRET^1), cells were stimulated with ligands for 5 or 15 min. BRET signal was recorded after incubation with coelenterazine h (5 μM) for 8 min. For kinetics studies, BRET signal between RLuc and Venus was recorded at 20-s intervals at basal state for the 2 first minutes and then for 5 min after ligand injection. For saturation curves (BRET^1), the expression level of Venus- or RLuc-tagged protein was determined by direct measurement of total fluorescence and luminescence respectively. Total fluorescence was first measured with an excitation filter at 485 nm and an emission filter at 520 nm. Then, the same sample was incubated for 8 minutes with 5 μM coelenterazine h and the total luminescence was measured. BRET^2 and BRET^1 readings were collected using a modified Infinite F500 (Tecan Group Ltd). The BRET^2 signal was calculated by the ratio of emission of GFP2 (510–540 nm) to RLuc8 (370–450 nm) and the BRET^1 signal by the ratio of emission of Venus (520–570 nm) to RLuc (370–480 nm). Sometimes, results are expressed as the Net BRET computed by deducting the BRET background signal (obtained in the presence of the energy donor alone) from the BRET signal (acquired from cells expressing both the energy donor and acceptor).

[4] = target: T2, Human P2Y12-R (Homo sapiens, UniProt Q9H244); assay: β-arrestin 2 recruitment BRET1 assay (β-arrestin 2-RLuc / P2Y12-R-Venus) in HEK293T cells; assay type: cell-based; conditions: Fig. S5; P2Y12-R; (+) apyrase; individual replicates
T2 construct: expressed in transfected cells; host or cells: HEK293T/17
From the text: as §3, with “[22]. […]” for “[22].”
G protein activation and β-arrestin 2 recruitment were performed as previously described. […] BRET signal between RLuc8 and GFP2 was measured after addition of the luciferase substrate coelenterazine 400a (5 μM). […] BRET signal was recorded after incubation with coelenterazine h (5 μM) for 8 min. For kinetics studies, BRET signal between RLuc and Venus was recorded at 20-s intervals at basal state for the 2 first minutes and then for 5 min after ligand injection. For saturation curves (BRET^1), the expression level of Venus- or RLuc-tagged protein was determined by direct measurement of total fluorescence and luminescence respectively. Total fluorescence was first measured with an excitation filter at 485 nm and an emission filter at 520 nm. […] BRET^2 and BRET^1 readings were collected using a modified Infinite F500 (Tecan Group Ltd). […]

[5] = system: HEK293T cells (pcDNA3.1); assay: β-arrestin 2 BRET1 basal signal in control HEK293T cells without receptor (pcDNA3.1); assay type: cell-based, Human; conditions: Fig. S5, (+) apyrase, individual replicates
From the text: Supplement 12915_2023_1528_MOESM8_ESM.xlsx, sheet "Fig. S5" | column: (+) apyrase

T2 sequence (Q9H244 whole entry): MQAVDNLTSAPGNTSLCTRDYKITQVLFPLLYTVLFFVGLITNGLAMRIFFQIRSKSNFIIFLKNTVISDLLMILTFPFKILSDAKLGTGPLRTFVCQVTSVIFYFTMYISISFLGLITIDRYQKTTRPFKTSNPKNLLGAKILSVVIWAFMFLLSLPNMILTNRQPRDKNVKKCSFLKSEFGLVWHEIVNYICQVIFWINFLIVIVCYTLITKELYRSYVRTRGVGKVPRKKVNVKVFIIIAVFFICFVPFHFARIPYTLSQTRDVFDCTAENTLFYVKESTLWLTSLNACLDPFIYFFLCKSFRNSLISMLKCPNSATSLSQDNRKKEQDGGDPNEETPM
T1 sequence (P47900 whole entry): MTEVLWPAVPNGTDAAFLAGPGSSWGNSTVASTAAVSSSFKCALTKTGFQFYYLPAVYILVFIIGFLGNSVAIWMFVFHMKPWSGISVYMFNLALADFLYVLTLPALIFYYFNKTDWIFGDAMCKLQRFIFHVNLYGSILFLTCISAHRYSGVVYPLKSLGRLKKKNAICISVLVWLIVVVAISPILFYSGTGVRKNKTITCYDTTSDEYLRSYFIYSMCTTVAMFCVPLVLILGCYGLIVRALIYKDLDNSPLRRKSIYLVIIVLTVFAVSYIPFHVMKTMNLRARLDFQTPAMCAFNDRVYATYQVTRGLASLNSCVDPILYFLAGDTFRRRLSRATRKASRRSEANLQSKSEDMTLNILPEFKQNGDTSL

Basal BRET signal ([1]; (+) apyrase 1 min): 0.9128 and 0.7477 and 0.6192 and 0.8378
Basal BRET signal ([1]; (+) apyrase 5 min): 0.6209 and 0.8174 and 0.9018 and 0.7551
Basal BRET signal ([1]; (+) apyrase 10 min): 0.6295 and 0.8302 and 0.9025 and 0.7259
Basal BRET signal [3]: 0.9766 and 1.039 and 0.9705 and 1.011
Basal BRET signal [4]: 0.9157 and 0.9699 and 0.8998 and 0.9124
Substance: apyrase
Basal BRET signal ([2]; (+) apyrase 1 min): 2.035 and 1.852 and 1.218 and 1.795
Basal BRET signal ([2]; (+) apyrase 5 min): 1.227 and 1.746 and 2.0243 and 1.801
Basal BRET signal ([2]; (+) apyrase 10 min): 1.204 and 1.749 and 1.987 and 1.796
Basal BRET signal [5]: 0.8767 and 0.9382 and 0.883 and 0.8696

Source: paper PMC9890698 (BMC Biology, 2023)
